Reference: PMC11434613, “The Remarkable and Selective In Vitro Cytotoxicity of Synthesized Bola-Amphiphilic Nanovesicles on Etoposide-Sensitive and -Resistant Neuroblastoma Cells” (Nanomaterials, 2024)
“And” between values parts separate entries of the source, which are not always exact repeats. Identical values can stand only once.

Tests used:
[1] = system: HTLA-230 human stage-IV NB cells; test: Cell viability assay (CellTiter 96 AQueous One Solution) on HTLA-230 NB cells; assay type: cell-based; details: for viability at 0.5 µM: series 0.5–50 µM
Excerpt: HTLA-230 human stage-IV NB cells were kindly provided by Dr. L. Raffaghello (G. Gaslini Institute, Genoa, Italy). The HTLA-ER cells were selected by treating HTLA-230 parental cells for six months with increasing concentrations of etoposide, as previously reported. Both cell populations were maintained in RPMI 1640 medium (Euroclone Spa, Pavia, Italy) supplemented with 10% fetal bovine serum (FBS, Euroclone Spa, Pavia, Italy), 1% L-glutamine (Euroclone Spa, Pavia, Italy), and 1% Penicillin/Streptomicin (Euroclone Spa, Pavia, Italy) and grown in standard conditions (37 °C humidified incubator with 5% CO2).
To determine the cytotoxic effects of BPPB, in vitro time- and dose-dependent experiments were carried out. Cells were first treated for 24, 48, and 72 h, with increasing concentrations (0.5–50 µM) of the compound. In a subsequent series of the experiments, cells were treated for 24, 48, and 72 h with increasing concentration of BPPB in the range of 0.1–2 µM. […] Cell cultures were carefully monitored before and during the experiments to ensure optimal cell density.
Cell viability was determined by using the CellTiter 96® AQueous One Solution Cell Proliferation Assay (Promega, Madison, WI, USA), as previously described. Briefly, cells (10,000 cells/well) were seeded into 96-well plates (Corning Incorporated, Corning, NY, USA) and then treated. Next, cells were incubated with 20 µL of CellTiter, and the absorbance at 490 nm was recorded using a microplate reader (EL-808, BIO-TEK Instruments Inc., Winooski, VT, USA). IC50 was evaluated by GraphPad Prism 5.4.2 Software (GraphPad Software, Boston, MA, USA).
Results are expressed as the means ± S.D. of at least four independent experiments in which six different wells were analyzed every time for each experimental condition. The statistical significance of differences was determined by two-way analysis of variances (ANOVA) followed by Tukey’s multicomparison test using GraphPad Prism 8.0 (GraphPad Software v8.0, San Diego, CA, USA); p < 0.05 was considered statistically significant. Asterisks or other indicators (see Figures captions) indicate the following p-value ranges: p > 0.05 no symbols, * = p < 0.05, ** = p < 0.01, *** = p < 0.001, **** = p < 0.0001.

[2] = MTT cytotoxicity assay on Cos-7 cells; assay type: cell-based, African green monkey; details: African green monkey
Experimental: (§1) To assess the cytotoxicity properties of BPPB, the MTT (3-(4,5-dimethylthiazol-2-yl)-2,5-diphenyltetrazolium bromide) cell proliferation assay (Abcam, Prodotti Gianni s.r.l., Milano, Italy, Cat#ab2011091) was performed, following the manufacturer’s protocol, as previously reported. This time, the increasing concentrations of BPPB were in the range of 0.4–85.3 µM. The cell survival rate, expressed as cell viability percentage (%), was evaluated based on the experimental outputs of treated groups vs. the untreated groups (CTR) and was calculated as follows: cell viability (%) = (OD treated cells − OD blank)/(OD untreated cells − OD blank) × 100%.
(§2) In this study, the cytotoxicity profile of BPPB was assessed in both immortalized human liver cells (HepG2) cells, as in our previous works, and in transformed African green monkey kidney fibroblast cells (Cos-7), as reported in a recent paper. Specifically, we evaluated the cytotoxicity of BPPB by carrying out both the MTT proliferation assay and the lactate dehydrogenase (LHD) cytotoxicity assay, which measures the LDH activity as an indicator of cell death. Both cell lines were exposed for 24 h to increasing concentrations of BPPB (0.4–85.3 µM). Growth inhibition/death were determined by the MTT test, while cell cytotoxicity was determined by LDH assay, with respect to untreated control cells. Results are reported as bar graphs in Figure 8 and as dispersion graphs in Figures S13 and S14 in Supplementary Materials (Section S2).

[3] = system: Cos-7 cells; test: MTT cytotoxicity assay on Cos-7 cells; assay type: cell-based, African green monkey; details: for IC50: MTT, concentration range 0.4–85.3 µM
Experimental: as §1, §2

[4] = system: Cos-7 cells; test: LDH cytotoxicity assay on Cos-7 cells; assay type: cell-based; details: 24 h
Experimental: To assess the cytotoxicity properties of BPPB, the lactate dehydrogenase (LDH) cytotoxicity assay (Abcam, Cat#ab102526) was performed, following manufacturer’s protocol, as previously described. This time, the increasing concentrations of BPPB were in the range 0.4–85.3 µM.
as §2

c1ccc([P+](CCCCCCCCCCCC[P+](c2ccccc2)(c2ccccc2)c2ccccc2)(c2ccccc2)c2ccccc2)cc1 [BPPB, 1,1-(1,12-dodecanediyl)bis [1,1, 1]-triphenylphosphonium di-bromide]
Cell viability HTLA-230 ([1]; 24 h, concentration at which hemolysis was inexistent (concentration not stated)): 18.2%
IC50 ([1]; 24 h exposure, refined concentration range 0.1–2 µM): 240 nM and 238 nM
Viable cells, both NB cell populations ([1]; 24 h treatment, HTLA-230 and HTLA-ER, concentrations leaving more than 98% of RBCs alive): 14–18%
IC50 ([1]; Homo sapiens, HTLA-230, 24 h, 24 h exposure, concentration range 0.5–50 µM): 738 ± 546 nM
IC50 ([1]; Homo sapiens, HTLA-230, 24 h, 24 h exposure, refined concentration range 0.1–2 µM): 200 nM
IC50 ([1]; Homo sapiens, HTLA-230, 48 h, 48 h exposure, concentration range 0.5–50 µM): 590 ± 445 nM
IC50 ([1]; Homo sapiens, HTLA-230, 48 h, 48 h exposure, refined concentration range 0.1–2 µM): 196 ± 21.1 nM
IC50 ([1]; Homo sapiens, HTLA-230, 72 h, 72 h exposure, concentration range 0.5–50 µM): 203 ± 178 nM
IC50 ([1]; Homo sapiens, HTLA-230, 72 h, 72 h exposure, refined concentration range 0.1–2 µM): 228 ± 17.6 nM
viability at 0.25 µM ([1]; Homo sapiens, HTLA-230, 0.25 µM, 24 h, series 0.1–2 µM): 53.1%
viability at 0.5 µM ([1]; Homo sapiens, HTLA-230, 24 h): 46%
viability at 0.5 µM ([1]; Homo sapiens, HTLA-230, 48 h): 41.6%
viability at 0.5 µM ([1]; Homo sapiens, HTLA-230, 72 h): 21.7%
viability at 5 µM ([1]; Homo sapiens, HTLA-230, concentrations ≥ 5 µM, 24, 48, 72 h): 16 to 18%
Selectivity indexes (SIs), all non-tumoral cells vs both NB cell populations ([1]; after 24 h treatments, MRC-5, Cos-7, HepG2, RBCs vs HTLA-230 and HTLA-ER): 2.5–74.6
viability at 24 h, 4.3 µM ([2]; Cos-7 cells, 4.3 µM, read-out: Cell viability Cos-7 (MTT)): 64.2%
viability at 24 h, 8.5 µM ([2]; Cos-7 cells, 8.5 µM, read-out: Cell viability Cos-7 (MTT)): 27.4%
selectivity ratio at 24 h ([2]; read-out: Selectivity index (SI) = IC50 Cos-7 / IC50 HTLA-ER): 4.42
Selectivity index (SI) = IC50 Cos-7 / IC50 HTLA-230 ([3]; 24 h): 20.72
IC50 ([3]; 24 h): 4910 ± 810 nM
IC50 ([3]; Chlorocebus sabaeus, COS-7, 24 h): 4900 nM
Concentrations with a safety profile toward Cos-7 ([3]; MTT test, 24 h): ≤ 4.3 µM
LDH release Cos-7 (optical density) ([4]; 4.3 µM): 0.30 OD
LDH release Cos-7 (optical density) ([4]; 8.5 µM): 0.80 OD
Concentrations with a safety profile toward Cos-7 ([4]; LDH test): ≤ 4.3 µM
